Here are results for two molecules from patent US12576114B2, “Methods of functional vascularization of pancreatic islets and beta-cell organoids” (CORNELL UNIVERSITY, priority 2019, dated 2026).

The structures appear in SMILES notation. Residues, ends and D or L forms follow the SMILES beside them. *: point of attachment. Cbz = O=C(OCc1ccccc1)*

The subject of one assay is Rap1. The assay is described as follows: Rap1 inhibition experiment, R-VEC tube formation. It counts as cell-based, human. Conditions: R-VECs, 10 μM, 4 weeks. On the procedure:
Tube formation assays for endothelial cells with or without ETV2 were set up in 24 wells as described above. The next day, Rap1 inhibitor (GGTI-298, Tocris) resuspended in DMSO was added to the wells at a 1:1000 dilution at the final concentration of 10 μM, while the same amount of DMSO was added to the control wells. The inhibitor and media were changed every other day for 4 weeks. Images were obtained and calculated as described above at 1 week and 4 week time points.

In the next assay the test system is ETV2 protein levels. Briefly: Proteasome inhibition experiment in R-VEC tubes. It counts as cell-based, human. Conditions: R-VEC tubes at stabilization stage (4 weeks), 20 μM for 6 hrs vs DMSO, Western blot. As to the method: Cells were lysed into 1×SDS loading buffer (50 mM Tris-HCl pH 6.8, 5% beta-mercaptoethanol, 2% SDS, 0.01% bromophenol blue, 10% glycerol) followed by sonication (Bioruptor, 2×30 seconds at high setting). Proteins were solved on 5-15% gradient Tris-glycine SDS-PAGE and semi-dry transferred to nitrocellulose membranes. The following primary antibodies were used at indicated dilutions: Rap1 (CST, #2399, 1:1,000); RASGRP3 (CST, #3334, 1:1,000), GAPDH (CST, #5174, 1:10,000); AKT (CST, 34685, 1:5,000); p-S473-Akt (CST, #4060, 1:2,000); ETS1 (CST, #14069, 1,000); and ETV2 (Abcam, ab181847, 1:1,000). HRP-conjugated secondary antibodies and the ECL Prime Western Blotting System (GE Healthcare, RPN2232) were then used. Chemiluminescent signals were captured with a digital camera (Kindle Biosciences) and images of protein bands taken for quantification using ImageJ.
R-VEC vessels were prepared on Matrigel as described above. At stabilization stage (4 weeks), R-VEC tubes were treated with either 20 μM of MG132 (Selleck Chemicals) or DMSO for 6 hrs. The media was removed and the wells were washed once with PBS. R-VEC tubes were then incubated in a solution of 2 mg/ml Dispase (Sigma) for 45 mins at 37° C. to dissociate the tubes. 20 μM of MG132 (Selleck Chemicals) or DMSO was continuously provided during the dissociation period. […]

For `COC(=O)[C@H](CC(C)C)NC(=O)c1ccc(NC[C@@H](N)CS)cc1-c1cccc2ccccc12` [GGTI298], the lumen entry in the assay on Rap1 (confocal and electron microscopy) is reported as “no lumen was present”. Further, in the assay with Rap1 (vs DMSO), the vessel formation entry is listed as “significantly reduced”.

With `CC(C)C[C@@H](C=O)NC(=O)[C@H](CC(C)C)NC(=O)[C@H](CC(C)C)NC(=O)OCc1ccccc1` [MG132] (Cbz-Leu-Leu-Leu-aldehyde), the “ETV2 protein levels restored” value in the assay on ETV2 protein levels is “six-fold”.
